Test results: patent US20250160318A1, “CRYOPRESERVATION SOLUTION AND USE THEREOF IN REDUCING ISCHEMIA-REPERFUSION INJURY (IRI) OF CELL, TISSUE, OR ORGAN” (Third Affiliated Hospital, Sun Yat-sen University, priority 2023, published 2025)

What was measured:
hUC-MSCs [1] = assay: Culture of hUC-MSCs plated after 72 h cryopreservation (cell status by light microscopy, cell number after 3 days); type: cell-based, human; details: hUC-MSCs after 72 h cryopreservation in Hibernate-A plus metabolite, 37° C., FIG. 3
Text: (§1) Cells used in this experiment were: hUC-MSCs (donated umbilical cord tissues from the Biotherapy Center of the Third Affiliated Hospital of Sun Yat-sen University and newborns).
(§2) The number of cells used in this experiment was: 1×10^6 cells.
(§3) The basic cryopreservation solution used in this experiment was Hibernate™-A medium (Thermofisher, catalog number: GIBCO A1247501), and the components were shown in Table 1.
(§4) The experimental groups of this example included: Hibernate™-A, Hibernate™-A+TUDCA, Hibernate™-A+QCA, and Hibernate™-A+Phosphocholine.
(§5) The experimental operation of this example included: 1 mL of the resuspended hUC-MSCs cells in Hibernate™-A basic cryopreservation solution with the above-mentioned specified metabolites added were placed in a 5 mL EP tube, allowed to stand at room temperature for 20 min, and then placed in a 4° C. refrigerator shaker for slow shaking to allow cryopreservation for 72 h. After cryopreservation for 72 h, the cells were centrifuged and counted with trypan blue to calculate the cell survival rate, and then plated on a 96-well plates for CCK8 cell proliferation assay. The remaining cells were continued to be plated on a 6-well plate and placed in a 37° C. cell culture incubator to observe the subsequent cell status.

hUC-MSCs [2] = assay: Immediate cell survival rate of hUC-MSCs by trypan blue counting after 72 h cryopreservation at 4° C.; type: cell-based, human; details: metabolite added to Hibernate-A basic cryopreservation solution, FIG. 3
Text: as §1, §2, §3, §4, §5

Hepatocytes = assay: Cryopreservation and rewarming of hepatocytes (MitoNeoD mitochondrial ROS, real-time imaging of cell membrane integrity); type: cell-based; details: UW solution with 50 μM phosphocholine, 4° C. 12 h, rewarming medium with 500 μM phosphocholine, 37° C. 2 h, FIGS. 7A-7B
Experimental: Hepatocytes cultured under normal conditions served as a 37° C. control. For cold exposure treatment, the medium was replaced with UW solution at room temperature for 15 min, and the cells in UW solution (containing 50 μM phosphocholine) were transferred to a 4° C. refrigerator for 12 h. Rewarming involved taking cells out of the refrigerator and culturing with a pre-chilled medium (containing 500 μM phosphocholine). After allowing to stand for 15 min at room temperature, the cells were transferred to a 37° C. incubator for 2 h. The integrity of cell membranes is dynamically monitored by Real-time imaging using MitoNeoD live cell dye to assess the mitochondrial ROS and transfection of a plasmid carrying the mNeonGreen tag and the phospholipase Cδ PH domain.

rat liver = assay: Static cold storage and rewarming/reperfusion of isolated rat liver (H&E sectioning, TUNEL staining); details: phosphocholine supplemented during rewarming/reperfusion, 4° C. 48 h, perfused 37° C. 2 h, FIGS. 8A-8C
Experimental: 2-3 month old male/female SD rats or 2-3 month old golden hamsters were fasted overnight and anesthetized by inhalation of isoflurane, and then given 50 IU of heparin. The bile duct was cannulated with a PE-10 catheter, and the portal vein was cannulated with a 22-G Introcan catheter. The liver was washed with physiological saline, UW, or UW supplemented with phosphocholine (50 μM) and collected. A perfusion system was established in a circulation mode, and 250 mL of a Krebs-Henseleit (KH) bicarbonate buffer or KH buffer supplemented with phosphocholine (500 μM) was prepared. Oxygenation was conducted in a mixed gas of 95% O2 and 5% CO2 through a fiber oxygenator to a partial pressure of oxygen exceeding 500 mmHg. The liver was stored at 4° C. for 48 h, equilibrated at room temperature for 10 min, and perfused at 37° C. for 2 h. A flow rate was set in pressure control mode, and a portal vein pressure (PVP) was kept constant at 12 mmHg. The flow rate and PVP were automatically monitored and recorded. The portal vein resistance (PVR) was calculated as follows: PVR (mmHg/mL×min×g liver)=PVP (12 mmHg)/portal vein flow rate (mLxminxg liver). Liver samples were fixated in 4% paraformaldehyde for subsequent H&E sectioning and TUNEL staining. […]

| ROS in hepatocyte mitochondria (Hepatocytes; MitoNeoD) | integrity of hepatocyte membrane (Hepatocytes; mNeonGreen-PLCδ PH domain imaging) | Structure (SMILES) | total number of cells obtained after being plated and cultured for 3 days versus basic cryopreservation solution control (hUC-MSCs [1]) | immediate cell survival rate versus basic cryopreservation solution control (hUC-MSCs [2]) | cell apoptosis versus control group (TUNEL staining) (rat liver) | sinus cavity (H&E sections) (rat liver) |
| --- | --- | --- | --- | --- | --- | --- |
|  |  | C[C@H](CCC(=O)NCCS(=O)(=O)[O-])[C@H]1CC[C@H]2[C@@H]3[C@@H](O)C[C@@H]4C[C@H](O)CC[C@]4(C)[C@H]3CC[C@]12C.[Na+] [TUDCA, sodium tauroursodeoxycholate] | significantly more | significantly higher |  |  |
| reduce | maintain the integrity | C[N+](C)(C)CCOP(=O)([O-])O [phosphocholine] | significantly more | slightly lower | milder | apparently normal |
|  |  | O=C(O)c1ccnc2ccccc12 [QCA, quinoline-4-carboxylic acid] | significantly more | slightly lower |  |  |
